In the COVID Moonshot data (paper PMC7615835):
“And” between values parts separate entries of the source, which are not always exact repeats. Identical values can stand only once.

Biological target: SARS-CoV-2 Main Protease (SARS-CoV-2) (UniProt P0DTD1)

SMILES | IC50
O=C(Cc1cc(Cl)cc(N2CCN(C(=O)OCc3ccccc3)CC2)c1)Nc1cncc2ccccc12 | 2.23 µM
O=C(Cc1cccc(Cl)c1)Nc1cncc2cccc(Cl)c12 | 0.594 µM
O=C(Cc1cc(Cl)cc(Nc2cc(Cl)c(O)c(Cl)c2)c1)Nc1cncc2ccccc12 | 6.9 µM
C=CC(=O)NCc1ccc(C(=O)N[C@H](CO)c2ccc(Br)c(F)c2)cc1 (stereo in doubt) | > 99.5 µM
CS(=O)(=O)N1Cc2cc(F)c(Cl)cc2C(C(=O)Nc2cncc3ccccc23)C1 (stereo unspecified) | 0.258 µM
O=C1CCCN(S(=O)(=O)c2cccs2)CC1 | > 99.5 µM
O=C(Cc1cc(Cl)cc(Nc2ccc(C(F)(F)F)cc2[N+](=O)[O-])c1)Nc1cncc2ccccc12 | 2.24 µM
O=C(Nc1cncc2ccccc12)C1COc2c(Cl)cccc21 (stereo unspecified) | 4.76 µM
CC1(C(=O)Nc2cncc3cc(S(C)(=O)=O)ccc23)CN(CC(=O)NC2CC2)S(=O)(=O)c2ccc(Cl)cc21 (stereo unspecified) | 0.468 µM
CC(C)(C)c1cnc(N(C(=O)c2ccco2)C(C(=O)NCCc2cccc(F)c2)c2cccnc2)s1 (stereo unspecified) | 3.94 µM
COc1ccc(C(Cc2cnn(C)c2)C(=O)Nc2c[nH]c3ccccc23)cc1 (stereo unspecified) | > 99.5 µM
O=C(Nc1cncc2ccccc12)[C@H]1CN(S(=O)(=O)CC2CS(=O)(=O)C2)Cc2ccc(Cl)cc21 (stereo in doubt) | 0.0505 µM and 0.108 µM and 0.0737 µM
Cc1ccnc(NC(=O)C2CCOc3ccc(Cl)cc32)c1N (stereo unspecified) | 71.6 µM
O=C(Nc1ccccc1)[C@H]1CN(C(=O)CCl)CCN1S(=O)(=O)c1ccsc1 (stereo in doubt) | 0.386 µM
O=C(Nc1cncc2cccc(Cl)c12)C12CC(C1)Oc1ccc(Cl)cc12 | 75.1 µM
CN1Cc2c(Cl)cc(Cl)cc2[C@H](c2cccc(S(=O)(=O)NCCOCCOCCNC(=O)NCCCCNC(=O)NCCOCCOCCNS(=O)(=O)c3cccc([C@@H]4CN(C)Cc5c(Cl)cc(Cl)cc54)c3)c2)C1 (stereo in doubt) | > 99 µM
NC(=O)C1Cc2nc[nH]c2CN1C(=O)CC1(C(=O)Nc2cncc3ccccc23)CCOc2ccc(Cl)cc21 (stereo unspecified) | 9.28 µM
CN(C)C(=O)CN1Cc2ccc(Cl)cc2C(C(=O)Nc2cncc3ccccc23)C1 (stereo unspecified) | 0.896 µM
O=C(Cc1cc(Cl)cc(Nc2c(Cl)cc(Cl)cc2Br)c1)Nc1cncc2ccccc12 | 1.63 µM
CN(C)C(=O)c1ccc2c(NC(=O)Cc3cccc(Cl)c3)cncc2c1 | 2.44 µM
CC(C)(C)c1ccc(N(C(=O)c2cn3ccccc3n2)C(C(=O)NCCc2cccc(F)c2)c2cccnc2)cc1 (stereo unspecified) | 18.2 µM
Cc1ccc2c(c1)c(CCN)cn2-c1cc(Cl)cc(CC(=O)Nc2cncc3ccccc23)c1 | 1.63 µM

SMILES | IC50
O=C(Cc1cc(Cl)cc(Nc2cc(Cl)ccc2OC(F)(F)F)c1)Nc1cncc2ccccc12 | 2.12 µM
CS(=O)(=O)Nc1ccc(Cl)cc1C(=O)N1CCC(C2CCNC2)CC1 (stereo unspecified) | > 99.5 µM
O=C(NCCc1cccc(F)c1)C(c1cccnc1)N(C(=O)c1cocn1)c1ccc2c(c1)CCCS2(=O)=O (stereo unspecified) | > 99.5 µM
NS(=O)(=O)c1ccc(CNC(=O)CC2(C(=O)Nc3cncc4ccccc34)CCOc3ccc(Cl)cc32)cc1 (stereo unspecified) | 3.72 µM
O=C(Cc1cccc(Cl)c1)Nc1cnccc1C(=O)O | > 99.5 µM
CCCOc1cc(Cl)cc2c1OCCC2C(=O)Nc1cncc2ccccc12 (stereo unspecified) | 5.63 µM
CNC(=O)CN1C[C@@]2(CC(=O)N(c3cncc4ccccc34)C2=O)c2cc(Cl)ccc2C1=O (stereo in doubt) | 0.123 µM
C[C@H](Nc1cc(Cl)cc(CC(=O)Nc2cncc3ccccc23)c1)c1cccc2ccccc12 (stereo in doubt) | 3.53 µM
O=C1NCC(C(=O)Nc2cncc3cc(F)ccc23)c2cc(Cl)ccc21 (stereo unspecified) | 1.15 µM
O=C(Nc1cncc2c1CCCC2)C1CNS(=O)(=O)c2ccc(Cl)cc21 (stereo unspecified) | 0.452 µM
CN(C)S(=O)(=O)NCC1(C(=O)Nc2cncc3ccccc23)CCOc2ccc(Cl)cc21 (stereo unspecified) | 2.73 µM
O=C(Nc1cncc2cc(F)ccc12)[C@@H]1CCS(=O)(=O)c2ccc(Cl)cc21 (stereo in doubt) | 0.294 µM
O=C(NCCc1cccc(F)c1)C(c1cccnc1)N(C(=O)c1ccco1)C1CCCC(c2ccc(F)c(F)c2)C1 (stereo unspecified) | > 99.5 µM
COc1ccc(-c2cc(N)n(-c3cc(Cl)cc(CC(=O)Nc4cncc5ccccc45)c3)n2)cc1 | 2.71 µM
O=C(Cc1cc(Cl)cc(Br)c1)Nc1cncc2ccccc12 | > 9.95 µM
CC(C)Oc1ccc(N(C(=O)c2cocn2)C(C(=O)NCCc2cccc(F)c2)c2cccnc2)cc1 (stereo unspecified) | 0.609 µM
CCNc1ncc(C#N)cc1CN1CCN(C(=O)CCl)CC1 | 3.22 µM
COCCNC(=O)C(c1cccnc1)N(C(=O)c1cocn1)c1ccc(C(C)(C)C)cc1 (stereo unspecified) | 8.46 µM
Cc1ccncc1NC(=O)[C@H](C)OC(F)F (stereo in doubt) | > 99.5 µM
C1=C(c2c[nH]c3ccccc23)CCN(Cc2ccno2)C1 | > 99.5 µM
Cn1ncc2cncc(NC(=O)C3CN(S(=O)(=O)CC4(C#N)CC4)Cc4ccc(Cl)cc43)c21 (stereo unspecified) | 2.53 µM
CC1(NC(=O)Cc2cccc(Cl)c2)CCNC1=O (stereo unspecified) | > 99.5 µM

SMILES | IC50
Cn1cnc(C(=O)N(c2ccc(C(C)(C)C)cc2)C(C(=O)NCCc2cccc(F)c2)c2cccnc2)cc1=O (stereo unspecified) | > 99.5 µM
CC1CN(C(=O)CC2(C(=O)Nc3cncc4ccccc34)CCOc3ccc(Cl)cc32)CCN1CCO (stereo unspecified) | > 99.5 µM
N[C@@H](Cc1ccc(O)cc1)C(=O)Nc1cc(Cl)cc(CC(=O)Nc2cncc3ccccc23)c1 (stereo in doubt) | 2.51 µM
O=C(NCCc1cccc(F)c1)C(c1cccnc1)N(C(=O)c1cocn1)C1CCC2(CCO2)CC1 (stereo unspecified) | > 99.5 µM
CN1C(=O)CCc2cc(N(C(=O)c3cocn3)C(C(=O)NCCc3cccc(F)c3)c3cccnc3)ccc21 (stereo unspecified) | 63.5 µM
O=C(Cc1cc(Cl)cc(Nc2ccc(O)cc2[N+](=O)[O-])c1)Nc1cncc2ccccc12 | 5.33 µM
Cn1c(C(NC(=O)Cc2cc3ccccc3[nH]2)c2cccc(Cl)c2)nc2ccccc21 (stereo unspecified) | > 99.5 µM
COC1(C(=O)Nc2cncc3cc(S(=O)(=O)N(C)C)ccc23)CCOc2ccc(Cl)cc21 (stereo unspecified) | 0.458 µM
CC(C)Oc1ccc(N(C(=O)c2cnc[nH]2)C(C(=O)NCCc2cccc(F)c2)c2cccnc2)cc1 (stereo unspecified) | 0.857 µM and 0.592 µM
CN(CCO)C1CCN(C(=O)CC2(C(=O)Nc3cncc4ccccc34)CCOc3ccc(Cl)cc32)CC1 (stereo unspecified) | 37.6 µM
Cc1cc(Nc2ccc3nc(C)sc3c2)n2ncnc2n1 | > 99.5 µM
Cn1cncc1C(=O)N(c1ccc(C(C)(C)C)cc1)C(C(=O)NCCc1cccc(F)c1)c1cccnc1 (stereo unspecified) | > 99.5 µM
C=CC(=O)N1CCN(S(=O)(=O)c2cccs2)CC1 | > 99.5 µM
O=C(Cc1cc(Cl)cc(NCc2c(Cl)cccc2Cl)c1)Nc1cncc2ccccc12 | 2.71 µM
O=C(NCCc1cccc(F)c1)C(c1cccnc1)N(C(=O)c1cocn1)c1ccc(C(F)(F)F)nc1 (stereo unspecified) | 36.4 µM
Cn1ncc2cc(N(C(=O)c3cnc[nH]3)C(C(=O)NCCc3cccc(F)c3)c3cccnc3)ccc21 (stereo unspecified) | > 99 µM
Cc1ccncc1NC(=O)Cc1cncc(Cl)c1 | 46.4 µM
O=C(COC(=O)C1(c2ccccc2)CCC1)c1c[nH]c2ccccc12 | > 99.5 µM
O=C(NCCc1cccc(F)c1)C(c1cccnc1)N(C(=O)c1cocn1)C1CCC2OCCC2C1 (stereo unspecified) | > 99.5 µM
CNC(=O)CN1CC2(CCN(c3cncc4cccc(Cl)c34)C2=O)c2cc(Cl)ccc2C1=O (stereo unspecified) | 1.67 µM
N#CC1(CS(=O)(=O)N2Cc3ccc(Cl)cc3C(C(=O)Nc3cncc4cc(NS(=O)(=O)C5CC5)ccc34)C2)CC1 (stereo unspecified) | < 0.05 µM
Cn1nncc1C(=O)N(c1ccc(C(C)(C)C)cc1)C(C(=O)NCCc1cccc(F)c1)c1cccnc1 (stereo unspecified) | > 99.5 µM
